The results in this text go back to PMC6934184, “Selective DNA-PKcs inhibition extends the therapeutic index of localized radiotherapy and chemotherapy” (The Journal of Clinical Investigation, 2019).

For the experiment, the target named is T1, MAPK9 (JNK2) (Homo sapiens, UniProt P45984).
T1 construct: purchased Thermo Fisher Scientific (Life Technologies) SelectScreen
Kind of experiment: SelectScreen Z'LYTE. The note with it: ATP 100 µM. In kind it is biochemical. The method, boiled down:
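SelectScreen broad panel; activity (Z'LYTE, Adapta) plus binding formats. ATP: Km app for CSF1R Z'LYTE; 10 for CAMK1 Adapta. Readout = % per kinase.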

By inhibition is commonly meant the change of the read-out against control, counted positive when it falls. Low values mean a response near the control, high ones a response far below the control.

T1 sequence (P45984 whole entry): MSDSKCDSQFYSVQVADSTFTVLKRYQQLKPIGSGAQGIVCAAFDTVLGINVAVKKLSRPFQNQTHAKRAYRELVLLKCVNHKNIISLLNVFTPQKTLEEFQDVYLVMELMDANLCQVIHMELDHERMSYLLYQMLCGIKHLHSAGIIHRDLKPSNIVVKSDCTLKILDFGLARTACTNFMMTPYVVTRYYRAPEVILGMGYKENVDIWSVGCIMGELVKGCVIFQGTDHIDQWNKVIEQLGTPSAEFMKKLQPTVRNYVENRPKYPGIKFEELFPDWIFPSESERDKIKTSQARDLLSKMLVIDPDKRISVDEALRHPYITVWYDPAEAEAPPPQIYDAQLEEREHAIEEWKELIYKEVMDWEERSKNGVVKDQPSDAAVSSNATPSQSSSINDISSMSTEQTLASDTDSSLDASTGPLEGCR

`CN(C(=O)CN1CCOCC1)c1ccc2sc3c(-c4cccc5c(=O)cc(N6CC7CCC(C6)O7)oc45)cccc3c2c1` [NU5455] displayed an inhibition at 1 µM of 2.8%.
